Test results taken from US20090298752A1, “APLIDINE TREATMENT OF CANCERS” (PHARMA MAR, S.A., priority 1999, published 2009).
“Also recorded” adds a separate entry of the source.

Tests used:
[1] = tested on: advanced solid tumours and lymphoma; experiment: Phase I, 1 h weekly infusion x3 q4wk: antitumour activity; type: in vivo, human
Excerpt: Adult patients with advanced disease, PS<3, and appropriate organ function are considered eligible; patients receive aplidine wk×3/q^4 wks. 24 solid tumour patients have been entered: median (m) age 55 y, m ECOG=1, 15/24 patients treated with =>2 treatment cycles. Seven dose levels (DL) from 133 mcg/m^2/wk to 2700 mcg/m^2/wk have been assessed: 102 infusions are evaluable for toxicity (tox). […] At 2700 mcg/m^2/wk (4 pts), 1 had G3 hiperbilirrubinemia that has been considered to be dose limiting and therefore 2700 mcg/m^2/wk DL is being expanded. […] Plasma levels >1 ng/ml 24 hours after infusion are reachable form 1800 mcg/m^2/wk. […] Aplidine appears to be clinically feasible at pharmacologically appropriate dose levels.
Aplidine was administered as a 1 hour weekly×3 every four weeks

[2] = tested on: MOLT-4; experiment: apoptosis in leukaemia cell line; type: cell-based, human
[3] = tested on: VEGF promoter; experiment: VEGF promoter activity, luciferase/renilla reporter gene system; type: cell-based; settings: FIG. 13
[4] = tested on: lewis lung carcinomas; settings: cited from earlier work
[5] = tested on: human bladder cancer; experiment: human bladder cancer animal models; type: in vivo; settings: complete remissions in some animal models
Excerpt: Bladder tumours are one type of tumour over-expressing the receptor to Epithelial Growth Factor (EGF), which leads to upregulation of VEGF and the VEGF receptor. Binding of VEGF to its receptor is believed to lead to cell growth stimulation by means of transitory local calcium ion changes among other mechanisms for signalling. A compound inhibiting VEGF action is expected to be inhibitory to such tumours.

[6] = tested on: solid tumours and Non-Hodgkin's Lymphomas; experiment: Phase I, 1 h daily infusion x5 q3wk: antitumour activity; type: in vivo, human
Description: The objectives are to determine the Maximum Tolerated Dose, the Dose Limiting Toxicity (DLT), the pharmacokinetics (PK) and the recommended dose for phase 2 studies that can be given in a daily 1 hour IV infusion×5 days q 3 weeks. Patients with solid tumours and low and intermediate grade Non-Hodgkin's Lymphomas were eligible. The daily starting dose of aplidine was 80 μg/m^2. Cohorts of 3 patients (pts) are treated at each level with dose escalation according to toxicity, 20 patients were treated with 6 dose levels ranging from 80 μg-720 μg/m^2, 1 patient is presently at the dose of 960 μg/m^2. At total of 48 cycles were administered. Non-haematological toxicities were grade 1 and 2 with fatigue reported in most pts. Grade 1 hypersensitivity reactions were documented in 7 patients. Other toxicities included nausea, anorexia, diarrhoea, and anxiety. […] PK analysis was performed in treatment course 1. Aplidine concentrations were analysed by LC tandem mass spectrography. […] Potentially therapeutic plasma concentrations ([…]) were achieved. […] Accrual is ongoing at 960 μg/m^2.

[7] = tested on: prostate tumour; settings: 1.25 mg/kg; cited from earlier work
[8] = tested on: AP-1; experiment: gel retardation assay, transcription factor binding; type: biochemical; settings: nuclear extracts incubated with aplidine, 60 min
Description: Nuclear extracts were incubated with different aplidine concentrations and labelled oligonucleotides for 60 min. Using gel retardation assay the binding of HIF-1 or AP-1 has been monitored.

[9] = tested on: Gastric MRI-H254; experiment: sc hollow fibre (HF), gastric tumour cells, rat; type: in vivo; settings: 24 hr.iv inf., 0.7 mg/kg
Description: (§1) Different model systems were evaluated to provide the basis for further clinical work. Selective antitumour activities were seen against two histologically different solid tumours: human gastric and prostate carcinomas. Potent in vitro activity to primary gastric tumour specimens or Hs746T gastric tumour cells is evident with IC30 values of 146 and 450 pM, respectively. […] activities were evaluated in nude rodents using sc implanted tumour fragments or hollow fibres (HF) containing tumour cells.
Follow-up studies necessitated using rats for iv infusions. With this variation, a 24 hr iv infusion schedule produced similar activities against HF gastric (20%) and HF prostate (31%) tumour cells. Cytotoxicity was also found using a 5 day iv infusion schedule against HF prostate tumour cells (33%).

[10] = tested on: primary gastric tumour specimens; experiment: in vitro activity on primary gastric tumour specimens; type: cell-based, human
Description: as §1

[11] = tested on: solid tumours and non-Hodgkin lymphoma; experiment: Phase I, 24 h infusion every 2 weeks: antitumour activity; type: in vivo, human
Description: Aplidine is given as a 24 hour infusion every 2 weeks. The starting dose was 200 μg/m^2/d and dose escalation proceed including so far 400, 800, 1600, and 3200 μg/m^2/d. A total of 18 patients (M/F: 7/11, median age 52, OMS 0/1:10/8) have been entered. […] Among evaluable patients, toxicity consisted of mild grade I-II nausea/vomiting, grade I-II asthenia, and cramping occurring during or immediately after the infusion. No neuromuscular toxicity were reported at the evaluated doses. One patient with an advanced lung cancer and documented tumour progression at the dose of 1600 μg/m^2 developed a haemolytic anaemia and thrombocytopenia that was considered unlikely related to the study drug. […] An open 2-compartment model fits appropriately most plasma concentration profiles. […] The accrual is ongoing to determine the dose limiting toxicity and the dose to be recommended in phase II studies.
Aplidine was given to patients with solid tumour/NHL as a 24 hr infusion/q2w to 35 patients (median: age=51/ECOG=1) with solid tumour (32 pts) or NHL (3 pts). 23/35 patients were previously exposed to ≧3 previous lines of chemotherapy. Nine dose levels (200-7000 μg/m^2/w/q2w) and 65 cycles (120 infusions) were given. […] Toxicity consisted of G2-3 asthenia and emesis in 9-2 patients and 12-1 pts, respectively. G3 nausea/vomiting (≧5000 μg/m^2) was efficiently treated then prevented with 4HT3-regimens. […] At the dose of 5000 μg/m^2/w/q2w, 2 patients experienced transient muscle cramps with reversible G3 CPK-MM elevations. Among 9 patients treated at 6000 μg/m^2/w, 3 patients experienced an increase of CPK-MM and aldolase after the 3rd injection of aplidine. CPK elevations were G1-2 and not symptomatic in 2 patients but a G3 CPK elevation with G3 muscular pain and loss of muscle strength (DLT) was reported in 1 pt. This was reversible with no sequel. […] Ultrastructural electron microscopy indicated no morphological mitochondria alteration but a lost of the thick myosin filaments. At 7000 μg/m^2/q2w, 4 patients have been entered. […] Mechanistic hypothesis and preventive strategies against muscle toxicity are under evaluation.

aplidine
response, Pat #16, gastric adenocarcinoma resistant to FAM ([1]; 1200 μg/m^2 weekly): Slight improvement in the lymph node masses
activity in gastric cancer ([1]; 1 patient at 1200 mcg/m^2): Early hints of activity
response, advanced renal cancer resistant to VBL-IFN ([1]; 2700 mcg/m^2/wk DL): ongoing objective response
response, Pat #23, kidney carcinoma with pulmonary nodules ([1]; after 2 infusions at 2700 μg/m^2 weekly): Partial remission in lung nodules
response, Pat #29, kidney carcinoma ([1]; after 3 infusion): Clinical improvement
apoptosis [2]: strong apoptosis
promoter activity of VEGF, in words [3]: does not affect the promoter activity of VEGF
activity in SC implanted tumour [4]: active
activity on human bladder cancer [5]: exceedingly high activity
duration of stable disease, colon cancer ([6]; 1 patient): 9 months
response, renal cell cancer ([6]; 1 patient): mixed response
objective responses ([6]; in vivo): No objective responses
reduction in the size of the tumor, heavily pre-treated CRC ([6]; one patient): 40%
reduction in sum of tumour measurements, renal cell cancer and liver mets ([6]; one patient, mixed responses): 10%
duration of stable disease, heavily pre-treated CRC ([6]; one patient, total 13 cycles): ≥ 6 months
T/C [7]: 25%
binding of AP-1 to consensus DNA sequence [8]: does not block the binding; also recorded: did not change the ability
Activity (% T/C.) [9]: 20 % T/C
IC30 [10]: 0.146 nM
response, patient with non-Hodgkin lymphoma ([11]; Example 6): Clinical improvement
Activity observed in NHL ([11]; Example 14): 1/3
Activity observed in molecular thyroid ([11]; Example 14): 2/2
Activity observed in neuroendocrine cancer ([11]; Example 14): 1 pt
Activity observed in renal ([11]; Example 14): 1/5
antitumour activity in NHL and renal carcinoma ([11]; Example 18): Antitumour activity has been also noted
